Measurements: the kinase profiling compilation of Christmann-Franck et al. (2016)

Assays:
FGFR2 (human) = FGFR2 (human) (UniProt P21802); assay: Caliper, Mobility shift assay off-chip
MAP2K3 (human) = MAP2K3 (human) (UniProt P46734); assay: ELISA
MAP2K6 (human) = MAP2K6 (human) (UniProt P52564); assay: ELISA
ABL2 (human) = ABL2 (human) (UniProt P42684); assay: Caliper, Mobility shift assay off-chip
PRKAA2 (human) = PRKAA2 (human) (UniProt P54646); assay: Caliper, Mobility shift assay off-chip
MAPK14 (human) = MAPK14 (human) (UniProt Q16539); assay: Caliper, Mobility shift assay off-chip
AURKA (human) = AURKA (human) (UniProt O14965); assay: Caliper, Mobility shift assay off-chip
MUSK (human) = MUSK (human) (UniProt O15146); assay: Caliper, Mobility shift assay off-chip
EPHA6 (human) = EPHA6 (human) (UniProt Q9UF33); assay: Caliper, Mobility shift assay off-chip
CSF1R (human) = CSF1R (human) (UniProt P07333); assay: Caliper, Mobility shift assay off-chip
CSF1R (human), sequence (P07333 whole entry, looked up): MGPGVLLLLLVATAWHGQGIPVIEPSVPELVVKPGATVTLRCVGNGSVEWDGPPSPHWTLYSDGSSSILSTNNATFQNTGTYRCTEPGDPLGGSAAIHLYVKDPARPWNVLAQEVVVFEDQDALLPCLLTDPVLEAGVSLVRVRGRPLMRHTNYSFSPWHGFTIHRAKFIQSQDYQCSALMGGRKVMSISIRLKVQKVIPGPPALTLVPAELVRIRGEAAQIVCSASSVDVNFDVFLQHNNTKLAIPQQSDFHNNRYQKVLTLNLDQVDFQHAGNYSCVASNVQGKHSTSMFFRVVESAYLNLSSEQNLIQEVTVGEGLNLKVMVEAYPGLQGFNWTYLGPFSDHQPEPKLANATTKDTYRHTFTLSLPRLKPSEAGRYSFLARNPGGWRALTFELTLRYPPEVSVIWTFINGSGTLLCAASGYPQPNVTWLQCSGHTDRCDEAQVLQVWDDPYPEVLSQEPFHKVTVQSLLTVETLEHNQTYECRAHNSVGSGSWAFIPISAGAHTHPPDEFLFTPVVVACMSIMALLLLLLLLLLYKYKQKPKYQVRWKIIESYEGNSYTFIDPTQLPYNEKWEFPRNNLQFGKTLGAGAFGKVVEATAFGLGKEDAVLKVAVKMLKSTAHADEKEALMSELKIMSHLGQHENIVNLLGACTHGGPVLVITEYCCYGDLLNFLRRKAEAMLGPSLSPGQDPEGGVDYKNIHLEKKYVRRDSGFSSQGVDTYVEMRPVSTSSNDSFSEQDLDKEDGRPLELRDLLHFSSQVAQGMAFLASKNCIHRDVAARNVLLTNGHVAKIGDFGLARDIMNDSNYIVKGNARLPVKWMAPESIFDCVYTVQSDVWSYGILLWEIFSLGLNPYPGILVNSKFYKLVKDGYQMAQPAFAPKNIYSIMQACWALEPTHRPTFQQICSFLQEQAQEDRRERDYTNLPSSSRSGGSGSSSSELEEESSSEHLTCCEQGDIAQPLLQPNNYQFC

PDGFRB (human) = PDGFRB (human) (UniProt P09619); assay: Caliper, Mobility shift assay off-chip
PDGFRB (human), sequence (P09619 whole entry, looked up): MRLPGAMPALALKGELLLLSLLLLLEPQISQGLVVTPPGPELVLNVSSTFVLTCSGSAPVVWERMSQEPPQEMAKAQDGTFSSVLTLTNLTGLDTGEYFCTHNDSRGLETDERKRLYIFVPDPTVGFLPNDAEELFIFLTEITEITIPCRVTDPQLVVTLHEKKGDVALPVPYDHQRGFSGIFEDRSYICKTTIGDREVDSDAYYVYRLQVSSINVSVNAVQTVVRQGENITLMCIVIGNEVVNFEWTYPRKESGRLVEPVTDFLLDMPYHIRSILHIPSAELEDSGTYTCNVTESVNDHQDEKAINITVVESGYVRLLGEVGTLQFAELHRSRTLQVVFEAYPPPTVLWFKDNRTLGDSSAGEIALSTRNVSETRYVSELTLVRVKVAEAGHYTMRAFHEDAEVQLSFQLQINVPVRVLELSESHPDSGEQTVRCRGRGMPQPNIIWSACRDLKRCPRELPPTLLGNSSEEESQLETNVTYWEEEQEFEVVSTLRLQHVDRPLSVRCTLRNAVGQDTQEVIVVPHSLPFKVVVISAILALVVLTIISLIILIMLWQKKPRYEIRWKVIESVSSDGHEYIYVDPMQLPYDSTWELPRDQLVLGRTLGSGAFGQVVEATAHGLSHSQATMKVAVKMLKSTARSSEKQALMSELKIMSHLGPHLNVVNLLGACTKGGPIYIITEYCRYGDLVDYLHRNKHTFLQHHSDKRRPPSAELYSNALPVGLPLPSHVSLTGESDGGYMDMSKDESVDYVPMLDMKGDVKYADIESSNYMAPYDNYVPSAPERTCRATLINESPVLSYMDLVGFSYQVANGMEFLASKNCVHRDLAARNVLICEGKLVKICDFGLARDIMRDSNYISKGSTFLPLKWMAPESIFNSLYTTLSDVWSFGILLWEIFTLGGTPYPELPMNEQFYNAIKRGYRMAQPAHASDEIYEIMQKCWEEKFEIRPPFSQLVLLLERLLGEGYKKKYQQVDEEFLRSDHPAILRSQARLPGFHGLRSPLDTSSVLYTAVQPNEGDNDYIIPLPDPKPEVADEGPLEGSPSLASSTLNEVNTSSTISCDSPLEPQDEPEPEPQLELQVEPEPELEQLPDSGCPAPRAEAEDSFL

HIPK4 (human) = HIPK4 (human) (UniProt Q8NE63); assay: Caliper, Mobility shift assay off-chip
HIPK4 (human), sequence (Q8NE63 whole entry, looked up): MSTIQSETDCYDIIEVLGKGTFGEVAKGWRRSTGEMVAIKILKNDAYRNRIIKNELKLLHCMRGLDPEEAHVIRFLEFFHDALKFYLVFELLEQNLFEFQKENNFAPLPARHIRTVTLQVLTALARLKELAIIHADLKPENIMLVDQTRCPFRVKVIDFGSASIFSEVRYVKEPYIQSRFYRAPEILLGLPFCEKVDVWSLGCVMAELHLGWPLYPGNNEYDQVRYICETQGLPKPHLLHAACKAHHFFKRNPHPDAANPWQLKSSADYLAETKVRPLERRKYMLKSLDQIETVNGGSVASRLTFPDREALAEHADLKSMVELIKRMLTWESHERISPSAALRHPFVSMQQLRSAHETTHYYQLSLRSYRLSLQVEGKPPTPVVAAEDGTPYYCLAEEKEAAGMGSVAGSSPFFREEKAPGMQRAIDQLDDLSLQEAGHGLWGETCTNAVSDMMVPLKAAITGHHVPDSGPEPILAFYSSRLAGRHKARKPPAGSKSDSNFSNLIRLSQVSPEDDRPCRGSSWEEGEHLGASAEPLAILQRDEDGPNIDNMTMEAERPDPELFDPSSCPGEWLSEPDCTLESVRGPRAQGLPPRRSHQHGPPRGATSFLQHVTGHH

DDR1 (human) = DDR1 (human) (UniProt Q08345); assay: Caliper, Mobility shift assay off-chip
DDR2 (human) = DDR2 (human) (UniProt Q16832); assay: Caliper, Mobility shift assay off-chip
PRKAA1 (human) = PRKAA1 (human) (UniProt Q13131); assay: Caliper, Mobility shift assay off-chip
BRAF (human) = BRAF (human) (UniProt P15056); assay: ELISA
RAF1 (human) = RAF1 (human) (UniProt P04049); assay: ELISA
RAF1 (human), sequence (P04049 whole entry, looked up): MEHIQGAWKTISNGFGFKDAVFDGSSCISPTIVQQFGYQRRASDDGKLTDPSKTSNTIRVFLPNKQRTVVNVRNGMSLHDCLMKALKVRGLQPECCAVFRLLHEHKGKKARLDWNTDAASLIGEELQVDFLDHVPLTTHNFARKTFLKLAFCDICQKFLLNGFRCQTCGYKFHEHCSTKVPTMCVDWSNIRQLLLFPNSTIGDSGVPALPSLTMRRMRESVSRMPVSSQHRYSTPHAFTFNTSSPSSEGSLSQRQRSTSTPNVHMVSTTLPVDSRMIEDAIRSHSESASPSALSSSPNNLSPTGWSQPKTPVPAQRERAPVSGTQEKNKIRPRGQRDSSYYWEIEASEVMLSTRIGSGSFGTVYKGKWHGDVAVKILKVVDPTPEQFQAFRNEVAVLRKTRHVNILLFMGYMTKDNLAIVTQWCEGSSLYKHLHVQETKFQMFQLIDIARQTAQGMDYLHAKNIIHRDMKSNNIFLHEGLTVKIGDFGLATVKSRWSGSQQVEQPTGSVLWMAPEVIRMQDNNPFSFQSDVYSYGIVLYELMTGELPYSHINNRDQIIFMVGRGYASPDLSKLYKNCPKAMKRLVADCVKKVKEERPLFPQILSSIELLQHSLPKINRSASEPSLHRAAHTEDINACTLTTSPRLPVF

PDGFRA (human) = PDGFRA (human) (UniProt P16234); assay: Caliper, Mobility shift assay off-chip

PRKAA2 (human), sequence (P54646 whole entry, looked up): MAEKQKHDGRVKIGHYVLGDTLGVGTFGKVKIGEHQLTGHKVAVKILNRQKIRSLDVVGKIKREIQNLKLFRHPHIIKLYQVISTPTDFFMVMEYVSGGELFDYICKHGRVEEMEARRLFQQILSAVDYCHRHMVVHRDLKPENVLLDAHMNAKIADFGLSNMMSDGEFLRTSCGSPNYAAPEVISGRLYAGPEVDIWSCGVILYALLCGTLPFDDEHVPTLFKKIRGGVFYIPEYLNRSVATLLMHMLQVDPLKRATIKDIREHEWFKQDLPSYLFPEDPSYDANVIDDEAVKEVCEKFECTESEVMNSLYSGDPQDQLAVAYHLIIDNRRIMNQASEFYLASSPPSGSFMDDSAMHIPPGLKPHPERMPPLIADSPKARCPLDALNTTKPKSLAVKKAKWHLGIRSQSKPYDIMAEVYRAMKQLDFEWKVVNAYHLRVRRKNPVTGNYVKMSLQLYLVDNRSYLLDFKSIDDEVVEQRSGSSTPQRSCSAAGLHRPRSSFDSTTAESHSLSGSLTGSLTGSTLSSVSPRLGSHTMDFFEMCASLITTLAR
ABL2 (human), sequence (P42684 whole entry, looked up): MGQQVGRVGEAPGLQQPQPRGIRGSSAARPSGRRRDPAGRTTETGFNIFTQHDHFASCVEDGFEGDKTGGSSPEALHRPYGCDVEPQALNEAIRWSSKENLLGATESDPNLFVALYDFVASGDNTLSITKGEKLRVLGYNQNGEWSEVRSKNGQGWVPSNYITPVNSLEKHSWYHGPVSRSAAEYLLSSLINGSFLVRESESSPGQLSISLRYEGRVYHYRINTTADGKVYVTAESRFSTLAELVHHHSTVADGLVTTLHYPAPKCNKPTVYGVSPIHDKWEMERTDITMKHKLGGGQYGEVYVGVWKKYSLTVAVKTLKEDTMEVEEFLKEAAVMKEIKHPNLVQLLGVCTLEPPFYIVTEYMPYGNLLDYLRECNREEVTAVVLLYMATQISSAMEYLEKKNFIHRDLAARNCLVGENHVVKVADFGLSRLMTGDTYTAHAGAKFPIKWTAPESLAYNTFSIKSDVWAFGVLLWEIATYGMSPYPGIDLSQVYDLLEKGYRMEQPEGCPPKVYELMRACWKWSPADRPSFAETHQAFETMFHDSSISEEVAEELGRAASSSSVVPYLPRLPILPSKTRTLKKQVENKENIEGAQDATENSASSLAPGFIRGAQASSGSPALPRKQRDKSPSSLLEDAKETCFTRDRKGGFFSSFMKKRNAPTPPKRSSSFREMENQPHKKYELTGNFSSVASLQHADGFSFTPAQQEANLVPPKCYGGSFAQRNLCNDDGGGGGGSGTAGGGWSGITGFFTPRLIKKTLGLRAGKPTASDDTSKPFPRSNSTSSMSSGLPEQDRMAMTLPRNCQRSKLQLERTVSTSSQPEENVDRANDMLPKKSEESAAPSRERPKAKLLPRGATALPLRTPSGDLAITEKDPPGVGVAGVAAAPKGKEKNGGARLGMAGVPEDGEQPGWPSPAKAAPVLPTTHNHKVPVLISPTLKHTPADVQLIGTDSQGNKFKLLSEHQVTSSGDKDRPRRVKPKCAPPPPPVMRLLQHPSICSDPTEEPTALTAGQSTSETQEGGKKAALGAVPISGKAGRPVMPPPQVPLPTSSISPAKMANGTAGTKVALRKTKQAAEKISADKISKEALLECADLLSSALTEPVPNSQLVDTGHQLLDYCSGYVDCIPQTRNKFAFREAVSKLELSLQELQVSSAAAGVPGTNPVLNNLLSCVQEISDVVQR

Structure (SMILES): Cc1cc2c(F)c(Oc3ncnn4cc(OC[C@@H](C)O)c(C)c34)ccc2[nH]1
- Ki (FGFR2 (human)): 18.1 nM

Structure (SMILES): COc1cc2nccc(Oc3ccc(NC(=O)Nc4cc(C)on4)c(Cl)c3)c2cc1OC
- Ki (MAP2K3 (human)): 272 nM
- Ki (MAP2K6 (human)): 302 nM
- Ki (ABL2 (human)): 52.5 nM
- Ki (PRKAA2 (human)): 1500 nM
- Ki (MAPK14 (human)): 266 nM
- Ki (AURKA (human)): 86.5 nM
- Ki (MUSK (human)): 291 nM
- Ki (EPHA6 (human)): 3.14 nM
- Ki (CSF1R (human)): 45.8 nM
- Ki (PDGFRB (human)): 1.4 nM
- Ki (HIPK4 (human)): 42.9 nM
- Ki (DDR1 (human)): 52 nM
- Ki (DDR2 (human)): 1.95 nM
- Ki (PRKAA1 (human)): 1500 nM

Structure (SMILES): Cc1ccc(F)c(NC(=O)Nc2ccc(-c3cccc4[nH]nc(N)c34)cc2)c1
- Ki (BRAF (human)): 5000 nM
- Ki (RAF1 (human)): 5000 nM
- Ki (ABL2 (human)): 5000 nM
- Ki (PRKAA2 (human)): 1670 nM
- Ki (PDGFRA (human)): 2.76 nM
